Results: US10017514B2, “6,7-dihydropyrazolo[1,5-α]pyrazin-4(5H)-one compounds and their use as negative allosteric modulators of mGluR2 receptors” (Janssen Pharmaceutica NV, priority 2014, dated 2018)

Tests used:
[1] = test system: rats; assay: Reversal of the effect of the mGluR2 PAM JNJ-42153605-induced inhibition of scopolamine-induced hyperlocomotion; type: in vivo, rat; conditions: Rattus norvegicus; rats; PO, 60 min pretreatment; JNJ-42153605 20 mg/kg i.v. + scopolamine 0.16 mg/kg i.v.; criterion total distance >1500 cm in 30 min; read-out: SCOP JNJ-42153605 ED50
Experimental: Motor activity was measured in microprocessor-based motor activity arenas (closed gray PVC cylinders with a height of 39 cm and a diameter of 31 cm). Each arena was placed on an infrared LED (8×8 LEDs) lit box (white PVC squared box; 40×40 cm^2; height 12.5 cm. An infrared-sensitive tube camera and a white light source were mounted to the ceiling above the observation chamber to track the animal. […] Noldus, Wageningen, The Netherlands). The intensity of the light within the activity cages (measured in the centre at the level of the floor) ranged between 4 and 8 LUX. The rats were pretreated with test compound or vehicle at 60 min before the start of the activity recordings and placed into individual cages. […] WO2010/130424; Cid et al. J. Med.

[2] = target: T1, human mGlu2 receptor (Homo sapiens, UniProt Q14416); assay: [35S]GTPγS binding assay, mGluR2 negative allosteric modulation; type: biochemical; conditions: for Emax: maximal % inhibition relative to the control glutamate response (EC80 glutamate), read-out: GTPγS-hmGluR2 anGT Emax; for IC50: membranes from CHO cells transfected with human mGlu2 receptor, glutamate ~EC80 (60 μM), read-out: GTPγS-hmGluR2 anGT pIC50 (converted)
T1 construct: expressed in transfected cells; host or cells: CHO cells (membrane preparation)
Experimental: Total reaction volume was 200 μl. […] Membrane-bound radioactivity was counted in a Topcount.

T1 sequence (Q14416 19-872): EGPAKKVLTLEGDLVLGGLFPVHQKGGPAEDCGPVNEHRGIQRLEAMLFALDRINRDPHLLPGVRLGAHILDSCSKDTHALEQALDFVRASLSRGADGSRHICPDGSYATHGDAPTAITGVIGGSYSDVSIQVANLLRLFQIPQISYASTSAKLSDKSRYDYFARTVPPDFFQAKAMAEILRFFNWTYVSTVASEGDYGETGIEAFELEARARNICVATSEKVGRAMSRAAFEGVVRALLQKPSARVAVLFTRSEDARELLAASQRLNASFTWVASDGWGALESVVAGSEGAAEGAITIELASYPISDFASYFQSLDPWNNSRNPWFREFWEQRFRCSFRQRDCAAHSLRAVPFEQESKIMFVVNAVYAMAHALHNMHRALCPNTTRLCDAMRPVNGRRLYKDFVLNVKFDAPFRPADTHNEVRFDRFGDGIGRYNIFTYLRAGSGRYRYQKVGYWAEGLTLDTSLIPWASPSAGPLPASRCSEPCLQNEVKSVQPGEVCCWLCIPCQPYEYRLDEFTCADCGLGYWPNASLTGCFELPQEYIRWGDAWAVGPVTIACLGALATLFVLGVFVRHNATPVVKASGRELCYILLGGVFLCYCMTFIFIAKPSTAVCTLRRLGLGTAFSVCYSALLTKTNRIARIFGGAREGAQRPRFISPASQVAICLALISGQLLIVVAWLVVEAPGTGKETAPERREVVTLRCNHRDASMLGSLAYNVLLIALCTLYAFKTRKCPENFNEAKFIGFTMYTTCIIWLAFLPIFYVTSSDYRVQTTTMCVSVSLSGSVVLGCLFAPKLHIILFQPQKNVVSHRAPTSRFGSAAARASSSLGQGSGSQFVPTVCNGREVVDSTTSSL

## Cc1ccncc1-c1cc(-c2cnn3c2C(=O)N(c2ccc(C(F)(F)F)c(C)c2)C[C@@H]3C)no1 [Co. No. 22, (7S)-7-methyl-3-[5-(4-methyl-3-pyridyl)isoxazol-3-yl]-5-[3-methyl-4-(trifluoromethyl)phenyl]-6,7-dihydropyrazolo[1,5-a]pyrazin-4-one]
[1]
  ED50: > 0.63 mg/kg
[2]
  Emax: 110%
  IC50: 2.09 nM
other
  melting point: 171.25 °C

## C[C@H]1CN(c2ccc(C(F)(F)F)cc2)C(=O)c2c(-c3cc(-c4ccc(N)nc4)on3)cnn21 [Co. No. 2, (7S)-3-[5-(6-Amino-3-pyridyl)isoxazol-3-yl]-7-methyl-5-[4-(trifluoromethyl)phenyl]-6,7-dihydropyrazolo[1,5-a]pyrazin-4-one]
[1]
  ED50: 0.5 mg/kg
[2]
  Emax: 103%
  IC50: 2.04 nM
other
  melting point: 233.79 °C

## Cc1ccncc1-c1cc(-c2cnn3c2C(=O)N(c2ccc(C(F)(F)F)cc2)C[C@@H]3C)no1 [Co. No. 18, (7S)-7-Methyl-3-[5-(4-methyl-3-pyridyl)isoxazol-3-yl]-5-[4-(trifluoromethyl)phenyl]-6,7-dihydropyrazolo[1,5-a]pyrazin-4-one]
[1]
  ED50: 0.51 mg/kg
[2]
  Emax: 109%
  IC50: 2.24 nM
other
  melting point: 197.33 °C

## C[C@H]1CN(c2ccc(C(F)(F)F)cc2)C(=O)c2c(-c3cc(-c4cccnc4)on3)cnn21 [Co. No. 5, (7S)-7-methyl-3-[5-(3-pyridyl)isoxazol-3-yl]-5-[4-(trifluoromethyl)phenyl]-6,7-dihydropyrazolo[1,5-a]pyrazin-4-one]
[1]
  ED50: 0.51 mg/kg
[2]
  Emax: 106%
  IC50: 11.2 nM
other
  melting point: 215.1 °C
